{"source": "patent US20220125811A1", "about": "“INJECTABLE COMPOSITION FOR INDUCING LIPOLYSIS AND METHOD USING THE SAME” (priority 2020, published 2022)", "origin": "cited, not measured here", "conditions": "half saline; 5 mEq sodium bicarbonate (8.4%); 6 cc multivitamin formulation; 10 cc amino acid formulation", "data": [{"compound": "O=C([O-])O.[Na+]", "note": "[sodium bicarbonate (8.4%), sodium bicarbonate]", "values": [{"measurement": "osmolarity of the ingredient amount used in the calculation", "value": 10, "unit": "mOsm"}]}]}
